Test results published in ChEMBL document CHEMBL3885881, “DrugMatrix”.

Species on record: Rattus norvegicus
Test: DrugMatrix - Regimen: Daily Repeat
Format: toxicity, organism-based, Sprague-Dawley
Set-up: regimen Daily Repeat, gender Male, age 6-8 weeks
Settings: in vivo, po, route oral GAVAGE, vehicle .5 % CMC; for ABSOLUTE BASOPHIL / ABSOLUTE EOSINOPHIL / ABSOLUTE LYMPHOCYTE / ABSOLUTE MONOCYTE / ABSOLUTE SEGMENTED NEUTROPHIL / BASOPHIL / EOSINOPHIL / ERYTHROCYTE COUNT / HEMATOCRIT / HEMOGLOBIN / LEUKOCYTE COUNT / LYMPHOCYTE / MEAN CORPUSCULAR HEMOGLOBIN / MEAN CORPUSCULAR HEMOGLOBIN CONCENTRATION / MEAN CORPUSCULAR VOLUME / MONOCYTE / NEUTROPHIL / NUCLEATED RED BLOOD CELLS / PLATELET COUNT: tissue Blood; for ALANINE AMINOTRANSFERASE / ALBUMIN / ALKALINE PHOSPHATASE / ASPARTATE AMINOTRANSFERASE / BLOOD UREA NITROGEN / CARBON DIOXIDE / CHLORIDE / CHOLESTEROL / CREATINE PHOSPHOKINASE / CREATININE / GLUCOSE / LACTATE DEHYDROGENASE / LIPASE / PHOSPHORUS / POTASSIUM / SODIUM / TOTAL BILIRUBIN / TOTAL PROTEIN / URIC ACID: tissue Plasma
[1] = 150 mg/kg, 120 h, dose level Low, time 5 day
[2] = 1500 mg/kg, 72 h, dose level High, time 3 day
[3] = 1500 mg/kg, 120 h, dose level High, time 5 day

## C[C@]1(Cn2ccnn2)[C@H](C(=O)O)N2C(=O)C[C@H]2S1(=O)=O [TAZOBACTAM]
[1]
  ABSOLUTE BASOPHIL: 0 CELLS/uL
  ABSOLUTE EOSINOPHIL: 96 CELLS/uL
  ABSOLUTE LYMPHOCYTE: 12730.67 CELLS/uL
  ABSOLUTE MONOCYTE: 0 CELLS/uL
  ABSOLUTE SEGMENTED NEUTROPHIL: 1940 CELLS/uL
  BASOPHIL: 0%
  EOSINOPHIL: 0.67%
  ERYTHROCYTE COUNT: 5.47 x10E6/uL
  HEMATOCRIT: 33.33%
  HEMOGLOBIN: 12.73 G/DL
  LEUKOCYTE COUNT: 14.77 x10E3/uL
  LYMPHOCYTE: 86%
  MEAN CORPUSCULAR HEMOGLOBIN: 23.3 pg
  MEAN CORPUSCULAR HEMOGLOBIN CONCENTRATION: 38.2 G/DL
  MEAN CORPUSCULAR VOLUME: 60.97 fL
  MONOCYTE: 0%
  NEUTROPHIL: 13.33%
  NUCLEATED RED BLOOD CELLS: 0 /100WBC
  PLATELET COUNT: 1082 x10E3/uL
  ALANINE AMINOTRANSFERASE: 60.67 u/L
  ALBUMIN: 4.2 G/DL
  ALKALINE PHOSPHATASE: 333 u/L
  ASPARTATE AMINOTRANSFERASE: 84 u/L
  BLOOD UREA NITROGEN: 17.33 mg/dL
  CARBON DIOXIDE: 23.33 mmol/L
  CHLORIDE: 104.33 MEQ/L
  CHOLESTEROL: 76.67 mg/dL
  CREATINE PHOSPHOKINASE: 277 u/L
  CREATININE: 0.21 mg/dL
  GLUCOSE: 141.33 mg/dL
  LACTATE DEHYDROGENASE: 295.67 u/L
  LIPASE: 9 u/L
  PHOSPHORUS: 13.07 mg/dL
  POTASSIUM: 6.29 MEQ/L
  SODIUM: 144.97 MEQ/L
  TOTAL BILIRUBIN: 0.17 mg/dL
  TOTAL PROTEIN: 5.8 G/DL
  URIC ACID: 1.83 mg/dL
[2]
  ABSOLUTE BASOPHIL: 0 CELLS/uL
  ABSOLUTE EOSINOPHIL: 240.33 CELLS/uL
  ABSOLUTE LYMPHOCYTE: 12544 CELLS/uL
  ABSOLUTE MONOCYTE: 44.33 CELLS/uL
  ABSOLUTE SEGMENTED NEUTROPHIL: 838 CELLS/uL
  BASOPHIL: 0%
  EOSINOPHIL: 1.67%
  ERYTHROCYTE COUNT: 5.29 x10E6/uL
  HEMATOCRIT: 33.47%
  HEMOGLOBIN: 12.83 G/DL
  LEUKOCYTE COUNT: 13.67 x10E3/uL
  LYMPHOCYTE: 91.67%
  MEAN CORPUSCULAR HEMOGLOBIN: 24.23 pg
  MEAN CORPUSCULAR HEMOGLOBIN CONCENTRATION: 38.33 G/DL
  MEAN CORPUSCULAR VOLUME: 63.23 fL
  MONOCYTE: 0.33%
  NEUTROPHIL: 6.33%
  NUCLEATED RED BLOOD CELLS: 0 /100WBC
  PLATELET COUNT: 1291.33 x10E3/uL
  ALANINE AMINOTRANSFERASE: 65.33 u/L
  ALBUMIN: 4.1 G/DL
  ALKALINE PHOSPHATASE: 447.33 u/L
  ASPARTATE AMINOTRANSFERASE: 89 u/L
  BLOOD UREA NITROGEN: 15.67 mg/dL
  CARBON DIOXIDE: 27.33 mmol/L
  CHLORIDE: 102.67 MEQ/L
  CHOLESTEROL: 73.33 mg/dL
  CREATINE PHOSPHOKINASE: 209.33 u/L
  CREATININE: 0.18 mg/dL
  GLUCOSE: 161.67 mg/dL
  LACTATE DEHYDROGENASE: 102 u/L
  LIPASE: 9 u/L
  PHOSPHORUS: 13.27 mg/dL
  POTASSIUM: 6.83 MEQ/L
  SODIUM: 146.53 MEQ/L
  TOTAL BILIRUBIN: 0.17 mg/dL
  TOTAL PROTEIN: 5.63 G/DL
  URIC ACID: 1.73 mg/dL
[3]
  ABSOLUTE BASOPHIL: 0 CELLS/uL
  ABSOLUTE EOSINOPHIL: 130.33 CELLS/uL
  ABSOLUTE LYMPHOCYTE: 11683.33 CELLS/uL
  ABSOLUTE MONOCYTE: 0 CELLS/uL
  ABSOLUTE SEGMENTED NEUTROPHIL: 1019.67 CELLS/uL
  BASOPHIL: 0%
  EOSINOPHIL: 1%
  ERYTHROCYTE COUNT: 5.74 x10E6/uL
  HEMATOCRIT: 36.23%
  HEMOGLOBIN: 13.93 G/DL
  LEUKOCYTE COUNT: 12.83 x10E3/uL
  LYMPHOCYTE: 91%
  MEAN CORPUSCULAR HEMOGLOBIN: 24.47 pg
  MEAN CORPUSCULAR HEMOGLOBIN CONCENTRATION: 38.5 G/DL
  MEAN CORPUSCULAR VOLUME: 63.5 fL
  MONOCYTE: 0%
  NEUTROPHIL: 8%
  NUCLEATED RED BLOOD CELLS: 0 /100WBC
  PLATELET COUNT: 1185.67 x10E3/uL
  ALANINE AMINOTRANSFERASE: 58.67 u/L
  ALBUMIN: 4.4 G/DL
  ALKALINE PHOSPHATASE: 302 u/L
  ASPARTATE AMINOTRANSFERASE: 76 u/L
  BLOOD UREA NITROGEN: 18.33 mg/dL
  CARBON DIOXIDE: 27 mmol/L
  CHLORIDE: 104 MEQ/L
  CHOLESTEROL: 62.67 mg/dL
  CREATINE PHOSPHOKINASE: 174 u/L
  CREATININE: 0.22 mg/dL
  GLUCOSE: 170 mg/dL
  LACTATE DEHYDROGENASE: 115.67 u/L
  LIPASE: 9 u/L
  PHOSPHORUS: 12.83 mg/dL
  POTASSIUM: 6.45 MEQ/L
  SODIUM: 148.17 MEQ/L
  TOTAL BILIRUBIN: 0.2 mg/dL
  TOTAL PROTEIN: 6.2 G/DL
  URIC ACID: 1.8 mg/dL
